Data published in US20220170062A1, “RNA CAPPING METHOD, PRODUCTION METHOD FOR MODIFIED RNA, AND MODIFIED RNA” (priority 2019, published 2022).

Molecular target: T1, Vaccinia virus capping enzyme (VCE) (Vaccinia virus, UniProt P04298)
T1 construct: purchased CellScript ScriptCap m^7G Capping System (catalogue number not given)
Assay type: biochemical
Set-up: key to Capping efficiency: A: capping was observed; B: either capping was not observed, or the capping efficiency was low

**Q.** Which Capping efficiency does the source give for “2′/3′-O-(2-Aminoethyl-carbamoyl)-Guanosine-5′-triphosphate [compound 22]” here?
**A.** A

**Q.** `C[n+]1cn([C@@H]2O[C@H](COP(=O)(O)OP(=O)(O)OP(=O)(O)O)[C@@H](O)[C@H]2O)c2nc(N)[nH]c(=O)c21` [compound 1, N7-Methylguanosine-5′-triphosphate] was tested. Which Capping efficiency did it give?
**A.** A

**Q.** And the “Capping efficiency (in words)” value?
**A.** favorable

**Q.** Which Capping efficiency does the source give for `Nc1nc2c(ccn2[C@@H]2O[C@H](COP(=O)(O)OP(=O)(O)OP(=O)(O)O)[C@@H](O)[C@H]2O)c(=O)[nH]1` [compound 4, 7-Deazaguanosine-5′-Triphosphate] here?
**A.** B

**Q.** `Nc1nc2c(C3OC(COP(=O)(O)OP(=O)(O)OP(=O)(O)O)C(O)C3O)scc2c(=O)[nH]1` (stereo not drawn) [compound 5, Thienoguanosine-5′-Triphosphate] was tested. Which Capping efficiency did it give?
**A.** B

**Q.** How did the Capping efficiency turn out when `Nc1[nH]c(=O)nc2c1ncn2[C@@H]1O[C@H](COP(=O)(O)OP(=O)(O)OP(=O)(O)O)[C@@H](O)[C@H]1O` [compound 7, Isoguanosine-5′-triphosphate] was run?
**A.** B

**Q.** How did the Capping efficiency turn out when `Nc1ncnc2c1ncn2[C@@H]1O[C@H](COP(=O)(O)OP(=O)(O)OP(=O)(O)O)[C@@H](O)[C@H]1O` [compound 8, Adenosine-5′-triphosphate] was run?
**A.** B

**Q.** With `O=c1[nH]c(=O)c2ncn([C@@H]3O[C@H](COP(=O)(O)OP(=O)(O)OP(=O)(O)O)[C@@H](O)[C@H]3O)c2[nH]1` [compound 10, Xanthosine-5′-Triphosphate] as the compound, how does the Capping efficiency read?
**A.** B

**Q.** `Nc1nc2c(ncn2[C@H]2CC[C@@H](COP(=O)(O)OP(=O)(O)OP(=O)(O)O)O2)c(=O)[nH]1` [compound 12, 2′,3′-Dideoxyguanosine-5′-triphosphate] was tested. Which Capping efficiency did it give?
**A.** B
